Assay results from the supplement of paper PMC10331698.
± gives the standard deviation of the averaged measurements.

Columns and labels:
Experiment in all cases: level (log10 ratio to DMSO vehicle control); higher = higher biomarker level / cell amount than vehicle control
[1] = compound: FC(F)(F)C(F)(F)C(F)(F)C(F)(F)C(F)(F)C(F)(F)I [Perfluoro-1-iodohexane]; conditions: in DMSO
Method: (§1)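 BioMAP Diversity Plus panel of 12 human primary cell co-culture systems (3C, 4H, LPS, SAg, BT, BF4T, BE3C, CASM3C, HDF3CGF, KF3CT, MyoF, Mphg). Compounds were added 1 h before stimulation and left for 24 h (MyoF 48 h; BT 72 h for soluble read-outs or 6 d for IgG). Biomarkers were read by ELISA, cytotoxicity by SRB, PBMC viability and proliferation by Alamar Blue. Each well value was divided by the mean of 8 DMSO control wells on the same plate and log10 transformed; duplicate blinded samples were tested at 4 concentrations.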

[2] = compound: O=C(O)C(F)(F)C(F)(F)C(F)(F)F [Perfluorobutanoic acid]; conditions: in DMSO
Method: as §1

[3] = compound: FC(F)(F)C(F)(F)C(F)(F)C(F)(F)C(F)(F)CCI [1-Iodo-1H,1H,2H,2H-perfluoroheptane]; conditions: in DMSO
Method: as §1

[4] = compound: O=C(O)C(F)(F)C(F)(F)C(F)(F)C(F)(F)C(F)(F)C(F)(F)F [Perfluoroheptanoic acid]; conditions: in DMSO
Method: as §1

[5] = compound: OCCCC(F)(F)C(F)(F)C(F)(F)C(F)(F)C(F)(F)C(F)(F)C(F)(F)F [7:3 Fluorotelomer alcohol]; conditions: 6700 nM; in DMSO
Method: as §1

[6] = compound: CCN(CCO)S(=O)(=O)C(F)(F)C(F)(F)C(F)(F)C(F)(F)C(F)(F)C(F)(F)C(F)(F)C(F)(F)F [N-Ethyl-N-(2-hydroxyethyl)perfluorooctanesulfonamide]; conditions: in DMSO
Method: as §1

[7] = compound: O=C(O)C(F)(F)OC(F)(F)C(F)(F)OC(F)(F)C(=O)O [Perfluoro-3,6-dioxaoctane-1,8-dioic acid]; conditions: in DMSO
Method: as §1

Row | Test System | level (log10) ([1]; 6700 nM) | level (log10) ([1]; 20000 nM) | level (log10) ([1]; 60000 nM) | level (log10) ([2]; 6700 nM) | level (log10) ([2]; 20000 nM) | level (log10) ([2]; 60000 nM) | level (log10) ([3]; 6700 nM) | level (log10) ([3]; 20000 nM) | level (log10) ([3]; 60000 nM) | level (log10) ([4]; 6700 nM) | level (log10) ([4]; 20000 nM) | level (log10) ([4]; 60000 nM) | level (log10) [5] | level (log10) ([6]; 6700 nM) | level (log10) ([6]; 20000 nM) | level (log10) ([7]; 6700 nM) | level (log10) ([7]; 20000 nM) | level (log10) ([7]; 60000 nM)
1 | BF4T:IL-1alpha | -0.0075 ± 0.005 | -0.0065 ± 0.012 | -0.004 ± 0.0057 | -0.0025 ± 0.029 | 0.0085 ± 0.0064 | 0.013 ± 0.014 | 0.0015 ± 0.022 | -0.001 ± 0.011 | 0.0065 ± 0.0092 | -0.0085 ± 0.023 | -0.0015 ± 0.005 | 0.013 ± 0.0099 | -0.0045 ± 0.012 | 0.008 ± 0.016 | -0.0175 ± 0.015 | -0.004 ± 0.0099 | 0.0085 ± 0.0035 | 0.006 ± 0.021
2 | BE3C:IL-1alpha | -0.0155 ± 0.013 | -0.009 ± 0.0014 | -0.0195 ± 0.013 | 0.007 ± 0.018 | 0.0155 ± 0.021 | 0.0225 ± 0.049 | -0.0085 ± 0.016 | -0.005 ± 0.013 | -0.012 ± 0.0085 | -0.0185 ± 0.029 | -0.0065 ± 0.03 | 0.0115 ± 0.0064 | -0.002 ± 0.014 | 0.0165 ± 0.005 | -0.0485 ± 0.059 | 0.0105 ± 0.0092 | 0.013 ± 0.0099 | 0.0235 ± 0.063
3 | BF4T:MMP-3 | 0.004 ± 0.0057 | 0.017 | 0.0635 ± 0.035 | 0.0005 ± 0.035 | 0.0045 ± 0.015 | 0.006 ± 0.033 | -0.006 ± 0.034 | -0.0015 ± 0.0078 | 0.0545 ± 0.021 | -0.027 ± 0.023 | -0.011 | 0.046 ± 0.048 | -0.013 ± 0.014 | -0.0145 ± 0.025 | 0.0505 ± 0.023 | -0.001 ± 0.0028 | -0.004 ± 0.0028 | 0.031 ± 0.025
4 | LPS:M-CSF | 0.0135 ± 0.019 | -0.0055 ± 0.05 | -0.003 ± 0.025 | 0.004 ± 0.014 | -0.005 ± 0.016 | 0.003 ± 0.03 | -0.0145 ± 0.0092 | -0.0185 ± 0.0035 | -0.031 ± 0.017 | -0.028 ± 0.024 | -0.008 ± 0.018 | -0.007 ± 0.038 | -0.006 ± 0.025 | 0.0495 ± 0.033 | 0.104 ± 0.041 | 0.0035 ± 0.005 | -0.002 ± 0.0028 | 0.021
5 | 4H:SRB | -0.0065 ± 0.011 | -0.008 ± 0.0042 | -0.0105 ± 0.0035 | -0.02 ± 0.044 | -0.0115 ± 0.0035 | -0.007 ± 0.024 | -0.004 ± 0.0057 | -0.01 ± 0.0057 | -0.008 ± 0.013 | -0.0035 ± 0.005 | 0.0135 ± 0.026 | -0.024 ± 0.021 | -0.0015 ± 0.0064 | -0.016 ± 0.0057 | -0.0605 ± 0.029 | -0.0115 ± 0.0078 | -0.0115 ± 0.022 | -0.003 ± 0.027
6 | BF4T:CD54/ICAM-1 | -0.004 ± 0.0057 | 0.0045 ± 0.013 | 0 ± 0.0057 | 0.007 ± 0.0057 | -0.002 ± 0.0071 | -0.002 ± 0.018 | -0.003 ± 0.0014 | -0.0215 ± 0.019 | -0.015 ± 0.0099 | -0.022 ± 0.0071 | -0.011 ± 0.0085 | 0.004 ± 0.0071 | -0.0065 ± 0.022 | 0.0495 ± 0.016 | 0.032 ± 0.0042 | -0.0025 ± 0.018 | -0.007 ± 0.0057 | 0.012 ± 0.027
7 | BF4T:SRB | -0.006 ± 0.0085 | -0.011 ± 0.011 | -0.0135 ± 0.016 | -0.012 ± 0.0071 | -0.0055 ± 0.00071 | 0 ± 0.0042 | -0.003 ± 0.0014 | -0.0035 ± 0.00071 | 0.006 ± 0.016 | -0.0085 ± 0.00071 | -0.0115 ± 0.00071 | -0.0035 ± 0.018 | -0.008 ± 0.017 | -0.016 ± 0.0071 | -0.027 ± 0.018 | -0.0115 ± 0.00071 | -0.014 ± 0.0014 | 0.003 ± 0.018
8 | LPS:CD40 | 0.058 ± 0.0014 | 0.0375 ± 0.005 | -0.0135 ± 0.061 | 0.0245 ± 0.061 | 0 ± 0.03 | -0.0095 ± 0.022 | 0.0475 ± 0.061 | 0.056 ± 0.061 | 0.014 ± 0.078 | -0.0135 ± 0.043 | 0.0055 ± 0.00071 | -0.0515 ± 0.079 | 0.0345 ± 0.005 | 0.0735 ± 0.022 | 0.122 ± 0.0042 | 0.025 ± 0.0099 | 0.0195 ± 0.005 | -0.0175 ± 0.053
